Assay results taken from patent US9957264B2 (Merck Sharp & Dohme Corp., priority 2013, dated 2018).
pIC50: −log10 of the molar value.

Experiments:
[1] = target: JAK1 (recombinant purified GST-tagged catalytic domain) (Homo sapiens (Human), UniProt P23458); assay: Jak Biochemical HTRF Assay (JAK1); settings: [ATP] 31.8 μM
Method in brief: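 HTRF format, biotinylated peptide substrate; ATP-initiated reaction 120 min RT; EDTA quench + streptavidin-Dylight 650/Eu-anti-pY20 detection, 60 min RT; signal = 665/615 ratio ×10,000; normalized % inhibition, 4-parameter fit → IC50.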

[2] = target: JAK2 (recombinant purified GST-tagged catalytic domain) (Homo sapiens (Human), UniProt O60674); assay: Jak Biochemical HTRF Assay (JAK2); settings: [ATP] 8.5 μM
Sequence of JAK2 (recombinant purified GST-tagged catalytic domain) (O60674 849-1124): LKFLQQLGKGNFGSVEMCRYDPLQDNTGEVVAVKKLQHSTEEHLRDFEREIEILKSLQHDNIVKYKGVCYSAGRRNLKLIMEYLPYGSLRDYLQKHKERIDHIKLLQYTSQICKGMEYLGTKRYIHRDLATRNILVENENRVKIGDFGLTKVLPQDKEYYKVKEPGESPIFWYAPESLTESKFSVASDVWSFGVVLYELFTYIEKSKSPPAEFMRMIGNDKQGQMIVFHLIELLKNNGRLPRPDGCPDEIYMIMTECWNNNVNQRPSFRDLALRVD

Sequence of JAK1 (recombinant purified GST-tagged catalytic domain) (P23458 875-1153): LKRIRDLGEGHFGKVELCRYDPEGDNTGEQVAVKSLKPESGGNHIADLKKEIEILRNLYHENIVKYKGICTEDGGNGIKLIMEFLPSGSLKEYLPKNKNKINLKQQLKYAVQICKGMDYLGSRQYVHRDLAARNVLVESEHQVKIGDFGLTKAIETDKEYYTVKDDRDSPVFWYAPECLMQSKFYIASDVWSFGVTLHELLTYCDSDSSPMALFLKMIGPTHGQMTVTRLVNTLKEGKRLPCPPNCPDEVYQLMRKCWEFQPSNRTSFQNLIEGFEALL

Row | Structure (SMILES) | pIC50 [1] | pIC50 [2]
1 | CC(C)NC(c1ccc(Nc2nn([C@]3(CC#N)CC[C@@H](C(=O)OC(C)(C)C)OC3)c3cc[nH]c(=O)c23)cc1)C(F)(F)F (single isomer, unassigned) [Example 5-210, (2S,5S)-tert-butyl 5-(cyanomethyl)-5-(4-oxo-3-((4-((R or S)-2,2,2-trifluoro-1-(isopropylamino)ethyl)phenyl)amino)-4,5-dihydro-1H-pyrazolo[4,3-c]pyridin-1-yl)tetrahydro-2H-pyran-2-carboxylate] | 9.39 | 9.29
2 | CCN1Cc2cc(Nc3nn(C4(CC#N)CCN(C(=O)OC)CC4)c4cc[nH]c(=O)c34)ccc2S1(=O)=O [Example 5-72, methyl 4-{3-[(2-ethyl-1,1-dioxo-2,3-dihydro-1,2-benzothiazol-5-yl)amino]-4-oxo-1H,4H,5H-pyrazolo [4,3-c]pyridin-1-yl}-4-(cyanomethyl)piperidine-1-carboxylate] | 10.22 | 9.59
3 | CNS(=O)(=O)c1ccc(Nc2nn(C3(CC#N)CCCC3)c3cc[nH]c(=O)c23)cc1 [Example 5-131, 4-((1-(1-(cyanomethyl)cyclopentyl)-4-oxo-4,5-dihydro-1H-pyrazolo[4,3-c]pyridin-3-yl)amino)-N-methylbenzenesulfonamide] | 9.60 | 9.01
4 | COC(c1ccc(Nc2nn([C@@]3(CC#N)CCN(C(=O)OC(C)(C)C)C[C@H]3F)c3cc[nH]c(=O)c23)cc1)C(F)(F)F (stereo partly shown) [Example 5-275] | 9.77 | 10.05
5 | CCNC(c1ccc(Nc2nn([C@@]3(CC#N)CCCC[C@H]3F)c3cc[nH]c(=O)c23)cc1)C(F)(F)F (single isomer, unassigned) [Example 5-174, {(1R,2R)-1-[3-({4-[(1R or 1S)-1-(ethylamino)-2,2,2-trifluoroethyl]phenyl}amino)-4-oxo-4,5-dihydro-1H-pyrazolo [4,3-c]pyridin-1-yl]-2-fluorocyclohexyl} acetonitrile] | 10.22 | 10.22
6 | CC(C)(C)OC(=O)[C@@H]1CC[C@@](CC#N)(n2nc(Nc3ccc(C(O)C(F)(F)F)cc3)c3c(=O)[nH]ccc32)CO1 (single isomer, unassigned) [Example 5-169, (2S,5S)-tert-butyl 5-(cyanomethyl)-5-(4-oxo-3-((4-((S or R)-2,2,2-trifluoro-1-hydroxyethyl)phenyl)amino)-4,5-dihydro-1H-pyrazolo [4,3-c]pyridin-1-yl)tetrahydro-2H-pyran-2-carboxylate] | 10.00 | 9.39
7 | CC(C)(C)OC(=O)[C@@H]1CC[C@@](CC#N)(n2nc(Nc3ccc(S(=O)(=O)N4CCOCC4)cc3)c3c(=O)[nH]ccc32)CO1 [Example 5-203, (2S,5S)-tert-butyl 5-(cyanomethyl)-5-(3-((4-(morpholinosulfonyl)phenyl)amino)-4-oxo-4,5-dihydro-1H-pyrazolo[4,3-c]pyridin-1-yl)tetrahydro-2H-pyran-2-carboxylate] | 9.82 | 9.57
8 | CC(C)(C)OC(=O)N1CCC(CC#N)(n2nc(Nc3ccc4c(c3)CN(C(C)(C)C)S4(=O)=O)c3c(=O)[nH]ccc32)CC1 [Example 5-23, tert-butyl 4-{3-[(2-tert-butyl-1,1-dioxido-2,3-dihydro-1,2-benzisothiazol-5-yl)amino]-4-oxo-4,5-dihydro-1H-pyrazolo[4,3-c]pyridin-1-yl}-4-(cyanomethyl)piperidine-1-carboxylate] | 9.62 | 9.47
9 | CN(C)S(=O)(=O)c1ccc(Nc2nn(C3(CC#N)CCN(CCc4ccccc4)CC3)c3cc[nH]c(=O)c23)cc1 [Example 8-18, 4-((1-(4-(cyanomethyl)-1-phenethylpiperidin-4-yl)-4-oxo-4,5-dihydro-1H-pyrazolo[4,3-c]pyridin-3-yl)amino)-N,N-dimethylbenzenesulfonamide] | 8.50 | 7.86
10 | CC(C)(C)OC(=O)N1CCC(CC#N)(n2nc(NCC3CC3)c3c(=O)[nH]ccc32)CC1 [Example 2-2, tert-butyl 4-(cyanomethyl)-4-{3-[(cyclopropylmethyl)amino]-4-oxo-4,5-dihydro-1H-pyrazolo[4,3-c]pyridin-1-yl}piperidine-1-carboxylate] | 7.30 | 7.40
11 | CC(C)(C)OC(=O)[C@@H]1CC[C@@](CC#N)(n2nc(Nc3ccc4ncccc4c3)c3c(=O)[nH]ccc32)CO1 [Example 5-215, (2S,5S)-tert-butyl 5-(cyanomethyl)-5-(4-oxo-3-(quinolin-6-ylamino)-4,5-dihydro-1H-pyrazolo[4,3-c]pyridin-1-yl)tetrahydro-2H-pyran-2-carboxylate] | 10.15 | 9.20
12 | N#CC[C@@]1(n2nc(Nc3ccc(S(=O)(=O)C4CCCC4)cc3)c3c(=O)[nH]ccc32)CCCOC1 [Example 5-191, [(3S)-3-(3-{[4-(cyclopentylsulfonyl)phenyl]amino}-4-oxo-4,5-dihydro-1H-pyrazolo[4,3-c]pyridin-1-yl)tetrahydro-2H-pyran-3-yl]acetonitrile] | 9.80 | 9.28
13 | CC(C)(C)OC(=O)N1CCC(CC#N)(n2nc(Nc3cc(Cn4ccnn4)cc(Cn4nccn4)c3)c3c(=O)[nH]ccc32)CC1 [Example 5-64, tert-butyl 4-(3-(3-((1H-1,2,3-triazol-1-yl)methyl)-5-((2H-1,2,3-triazol-2-yl)methyl)phenylamino)-4-oxo-4,5-dihydropyrazolo [4,3-c]pyridin-1-yl)-4-(cyanomethyl)piperidine-1-carboxylate] | 9.24 | 9.34
14 | CC(C)N(C)S(=O)(=O)c1ccc(Nc2nn([C@]3(CC#N)CC[C@@H](C(=O)OC(C)(C)C)OC3)c3cc[nH]c(=O)c23)cc1 [Example 5-91, (2S,5S)-tert-butyl 5-(cyanomethyl)-5-(3-((4-(N-isopropyl-N-methylsulfamoyl)phenyl)amino)-4-oxo-4,5-dihydro-1H-pyrazolo[4,3-c]pyridin-1-yl)tetrahydro-2H-pyran-2-carboxylate] | 9.85 | 9.64
15 | N#CCC1(n2nc(Nc3ccc(F)cc3)c3c(=O)[nH]ccc32)CCNCC1 [Example 6, (4-{3-[(4-fluorophenyl)amino]-4-oxo-4,5-dihydro-1H-pyrazolo[4,3-c]pyridin-1-yl}piperidin-4-yl)acetonitrile] | 6.38 | < 5.83
16 | Cc1cc(Nc2nn([C@@]3(CC#N)CCN(C(=O)OC(C)(C)C)C[C@H]3F)c3cc[nH]c(=O)c23)ccc1C(=O)N1CCSCC1 [Example 5-279, (3R,4R)-tert-butyl 4-(cyanomethyl)-3-fluoro-4-(3-((3-methyl-4-(thiomorpholine-4-carbonyl)phenyl)amino)-4-oxo-4,5-dihydro-1H-pyrazolo[4,3-c]pyridin-1-yl)piperidine-1-carboxylate] | 9.74 | 9.92

Results, then the compound that gave them:

Row | pIC50 [1] | pIC50 [2] | Structure (SMILES)
17 | 7.39 | 5.89 | N#CC[C@]1(n2nc(Nc3ccc(C(F)(F)F)cc3)c3c(=O)[nH]ccc32)CC[C@@H](Nc2ccccc2)CC1 [Example 18-3, Cis 2-(1-(4-oxo-3-((4-(trifluoromethyl)phenyl)amino)-4,5-dihydro-1H-pyrazolo[4,3-c]pyridin-1-yl)-4-(phenylamino)cyclohexyl)acetonitrile]
18 | 8.61 | 7.26 | N#CC[C@]1(n2nc(Nc3ccc(Cl)c(F)c3)c3c(=O)[nH]ccc32)CC[C@H](Nc2ccccc2)CC1 [Example 18-26, Trans 2-(1-(3-((4-chloro-3-fluorophenyl)amino)-4-oxo-4,5-dihydro-1H-pyrazolo[4,3-c]pyridin-1-yl)-4-(phenylamino)cyclohexyl)acetonitrile]
19 | 10.00 | 9.82 | Cc1cc(Nc2nn([C@]3(CC#N)CC[C@@H](C(=O)OC(C)(C)C)OC3)c3cc[nH]c(=O)c23)ccc1C(=O)N1C[C@@H]2C[C@H]1CO2 [Example 20-16, (2S,5S)-tert-butyl 5-(3-((4-((1S,4S)-2-oxa-5-azabicyclo[2.2.1]heptane-5-carbonyl)-3-methylphenyl)amino)-4-oxo-4,5-dihydro-1H-pyrazolo[4,3-c]pyridin-1-yl)-5-(cyanomethyl)tetrahydro-2H-pyran-2-carboxylate]
20 | 9.57 | 9.01 | CN(C)S(=O)(=O)c1ccc(Nc2nn(C3(CC#N)CCN(C(=O)Oc4ccc(F)cc4)CC3)c3cc[nH]c(=O)c23)cc1 [Example 10-3, 4-fluorophenyl 4-(cyanomethyl)-4-(3-((4-(N,N-dimethylsulfamoyl)phenyl)amino)-4-oxo-4,5-dihydro-1H-pyrazolo[4,3-c]pyridin-1-yl)piperidine-1-carboxylate]
21 | 9.46 | 9.06 | Cc1cc(Nc2nn([C@]3(CC#N)CCCOC3)c3cc[nH]c(=O)c23)ccc1C(=O)N1CCC(C)(O)CC1 [Example 20-4, (S)-2-(3-(3-((4-(4-hydroxy-4-methylpiperidine-1-carbonyl)-3-methylphenyl)amino)-4-oxo-4,5-dihydro-1H-pyrazolo[4,3-c]pyridin-1-yl)tetrahydro-2H-pyran-3-yl)acetonitrile]
22 | 9.92 | 9.54 | CCOC(=O)N1CCC(CC#N)(n2nc(Nc3ccc(S(=O)(=O)N(C)C)cc3)c3c(=O)[nH]ccc32)CC1 [Example 10-5, ethyl 4-(cyanomethyl)-4-(3-((4-(N,N-dimethylsulfamoyl)phenyl)amino)-4-oxo-4,5-dihydro-1H-pyrazolo[4,3-c]pyridin-1-yl)piperidine-1-carboxylate]
23 | 7.15 | < 5.83 | N#CC[C@]1(n2nc(Nc3ccc(Cl)c(F)c3)c3c(=O)[nH]ccc32)CC[C@@H](Nc2ccccc2)CC1 [Example 18-25, Cis 2-(1-(3-((4-chloro-3-fluorophenyl)amino)-4-oxo-4,5-dihydro-1H-pyrazolo[4,3-c]pyridin-1-yl)-4-(phenylamino)cyclohexyl)acetonitrile]
